Experimental data reported in patent publication US6228363A, “Peptides for the treatment of systemic lupus erythematosus” (Hadasit Medical Research Services & Development Company Ltd., priority 1997, dated 2001).

Tests used:
[1] = test system: murine urinary immunoglobulins; test: Binding of murine urinary immunoglobulins, direct binding ELISA; parameters: species or system mice; details: pooled urine
Protocol: (§1) Wells were coated with 10 μg/ml of the peptides, blocked with 1% BSA (bovine serum albumin) in PBS (pH 7,4), reacted with appropriately diluted serum or urine samples or monoclonal antibodies, incubated with anti-human or anti-mouse immunoglobulin enzyme conjugated to alkaline phosphatase and detected by addition of substrate (Sigma 100 Phosphatase Substrate Tablets) and color development using an Organon Teknika Microwell System spectrometer at wavelength of 405 nm.
Thus, pooled urine from at least 5 mice (either MRL/1pr/1pr or control mice, e.g. BALB/c) was added to wells coated with R38' (5200), R18 or DNA as described above and bound 5200 assayed by ELISA.
Binding of Murine Urinary Immunoglobulins To 5200
Each group is comprised of pooled urine.

[2] = test system: C72 murine anti-DNA antibody; test: Competitive inhibition of C72 binding to 5200, ELISA; details: antibody incubated with inhibitor before ELISA
Protocol: Competitive Inhibition Assays:
In competitive inhibition assays, the antibodies were incubated with various concentrations of the inhibitor (for example: peptide, DNA, heparin) or with DNase for 45 minutes at room temperature and the remaining binding was then evaluated by ELISA as described heretofore.
% inhibition was computed as
O.D. binding without inhibitor-O.D. binding with inhibitor×100=%
inhibition O.D. binding without inhibitor
The binding of C72 to 5200 was tested before and after incubation with 5200, R38, R18, Heparin, DNA and DNase. […] The percent inhibition is the percent reduction of the O.D. after incubation with the inhibiting agent.

[3] = test system: C72 murine anti-DNA antibody; test: Direct binding ELISA of C72 to laminin peptides; details: for binding of C72 murine anti-DNA antibody to peptide (FIG. 1): C72 conditioned medium in various dilutions in PBS; for C72 Binding: O.D. in a direct binding ELISA test after one (1) hour
Protocol: The C72 murine anti-DNA antibody has been derived from (NZBxNZW)F1 lupus mice by the hybridoma technique as described in Eilat D. et al J. Immunol. (1991) 147 361-368. The monoclonal anti-DNA antibodies DIL6 and B3 were derived from lupus patients by hybridoma technique as described in Ehrenstein M. R. et al J. Clin. Invest. (1994) 93 1787-1799 and Ehrenstein M. R. et al Kidney Inter. (1995) 48 705-711.
Anti-Peptide (Direct Binding) ELISA:
as §1
The interaction of the C72 murine anti-DNA antibody with laminin peptides was analyzed by ELISA as described above. The C72 conditioned medium was diluted in PBS in various dilutions.
The peptides of the present invention were tested for their ability to bind directly with C72 murine anti-DNA antibodies and B3 human anti-DNA antibodies according to the methods described hereinabove.

Binding of murine urinary immunoglobulins to antigen ([1]; BALB/c mice)	Binding of murine urinary immunoglobulins to antigen ([1]; MRL/lpr/lpr mice)	inhibition of the binding of C72 to 5200 (FIG. 2) [2]	binding of C72 murine anti-DNA antibody to peptide (FIG. 1) [3]	C72 Binding [3]	Substance
U.D.	U.D.	inhibition			DNA [reference compound]
		not			DNase
			binding	0.75 O.D.	KONCLSSRASFRGCVRNLRLSR (PHTHSTSADTNDPIYVGGYPAH; UniProt P19137 3011-3032, looked up, fragment) [Peptide R30, mouse laminin α chain residues 3011-3032]
U.D.	U.D.		not	0.01 O.D.	RPVRHAQCRVCDGNSTNPRERH [Peptide R18, peptide from the N-terminal of mouse laminin α chain, residues 42-63]
		inhibition			heparin
